Experimental data reported in patent US9326973B2, “Hepatitis C virus inhibitors” (priority 2012, dated 2016).

What follows are compounds tested on HCV replicon, genotype-1a variant with glutamine 30 changed to glutamate in the NS5A protein (assay: microbe, parasite or virus in culture). Conditions: HCV replicon genotype 1a Q30E (Q→E) variant; test compound titrated with an NS5A-targeting compound (BMS-790052 fixed at 200 nM); ranking of synergist activity.
Assay type: cell-based, HCV genotype 1a
Outline: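 Synergy was assessed by combining several fixed amounts of an NS5A-targeting compound with a titration of the second compound of interest.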

SMILES	Fold-Synergistic 1a (Q30E)
CC(C)[C@H](NC(=O)C1CCC(F)(F)CC1)c1nc(-c2ccc3c(c2)Cc2cc(-c4c[nH]c([C@@H](NC(=O)C5CCC(F)(F)CC5)C(C)C)n4)ccc2-3)c[nH]1 [Compound N-70]	>100 fold
CC(C)[C@H](NC(=O)C1CC(F)(F)C1)c1nc(-c2ccc3c(c2)Cc2cc(-c4c[nH]c([C@@H](NC(=O)C5CC(F)(F)C5)C(C)C)n4)ccc2-3)c[nH]1 [Compound N-71]	>100 fold
CC(C)[C@H](NC(=O)C1(C)CCCC1)c1nc(-c2ccc3c(c2)Cc2cc(-c4c[nH]c([C@@H](NC(=O)C5(C)CCCC5)C(C)C)n4)ccc2-3)c[nH]1 [Compound N-72]	>100 fold
CC(C)[C@H](NC(=O)c1cc(Cl)ccc1F)c1nc(-c2ccc3c(c2)Cc2cc(-c4c[nH]c([C@@H](NC(=O)c5cc(Cl)ccc5F)C(C)C)n4)ccc2-3)c[nH]1 [Compound N-73]	>100 fold
CC(C)[C@H](NC(=O)C(C)(C)F)c1nc(-c2ccc3c(c2)CCc2cc(-c4c[nH]c([C@@H](NC(=O)C(C)(C)F)C(C)C)n4)ccc2-3)c[nH]1 [Compound N-75]	>100 fold
CC(C)[C@H](NC(=O)c1cc(Cl)ccc1F)c1nc(-c2ccc3c(c2)CCc2cc(-c4c[nH]c([C@@H](NC(=O)c5cc(Cl)ccc5F)C(C)C)n4)ccc2-3)c[nH]1 [Compound N-76]	>100 fold
Cc1cc(-c2ccc(-c3c[nH]c([C@@H](NC(=O)C4CC(F)(F)C4)C(C)C)n3)cc2)ccc1-c1c[nH]c([C@@H](NC(=O)C2CC(F)(F)C2)C(C)C)n1 [Compound N-78]	>100 fold
Cc1cc(-c2ccc(-c3c[nH]c([C@@H](NC(=O)C4(C)CCCCC4)C(C)C)n3)cc2)ccc1-c1c[nH]c([C@@H](NC(=O)C2(C)CCCCC2)C(C)C)n1 [Compound N-79]	>100 fold
Cc1cc(-c2ccc(-c3c[nH]c([C@@H](NC(=O)C4(C)CCCC4)C(C)C)n3)cc2)ccc1-c1c[nH]c([C@@H](NC(=O)C2(C)CCCC2)C(C)C)n1 [Compound N-80]	>100 fold
Cc1cc(-c2ccc(-c3c[nH]c([C@@H](NC(=O)c4c(F)cccc4Cl)C(C)C)n3)cc2)ccc1-c1c[nH]c([C@@H](NC(=O)c2c(F)cccc2Cl)C(C)C)n1 [Compound N-81]	>100 fold
Cc1cc(-c2ccc(-c3c[nH]c([C@@H](NC(=O)C4CCC(F)(F)CC4)C(C)C)n3)cc2)ccc1-c1c[nH]c([C@@H](NC(=O)C2CCC(F)(F)CC2)C(C)C)n1 [Compound N-82]	>100 fold
Cc1cc(-c2ccc(-c3c[nH]c([C@@H](NC(=O)C4(C)CCC(F)(F)CC4)C(C)C)n3)cc2)ccc1-c1c[nH]c([C@@H](NC(=O)C2(C)CCC(F)(F)CC2)C(C)C)n1 [Compound N-84]	>100 fold
COC(C)(C)C(=O)N[C@H](c1nc(-c2ccc(-c3ccc(-c4c[nH]c([C@@H](NC(=O)C(C)(C)OC)C(C)(C)C)n4)c(C)c3)cc2)c[nH]1)C(C)(C)C [Compound N-85]	>100 fold
Cc1cc(-c2ccc(-c3c[nH]c([C@@H](NC(=O)C(C)(C)C)C(C)(C)C)n3)cc2)ccc1-c1c[nH]c([C@@H](NC(=O)C(C)(C)C)C(C)(C)C)n1 [Compound N-86]	>100 fold
COC(C)(C)C(=O)N[C@H](c1nc(-c2ccc(-c3ccc(-c4c[nH]c([C@@H](NC(=O)C(C)(C)OC)C(C)C)n4)c(F)c3)cc2)c[nH]1)C(C)C [Compound N-87]	>100 fold
CC(C)[C@H](NC(=O)c1cc(Cl)ccc1F)c1nc(-c2ccc(-c3ccc(-c4c[nH]c([C@@H](NC(=O)c5cc(Cl)ccc5F)C(C)C)n4)c(F)c3)cc2)c[nH]1 [Compound N-88]	>100 fold
CC(C)[C@H](NC(=O)C(C)(C)C)c1nc(-c2ccc(-c3ccc(-c4c[nH]c([C@@H](NC(=O)C(C)(C)C)C(C)C)n4)c(F)c3)cc2)c[nH]1 [Compound N-89]	>100 fold
CC(C)[C@H](NC(=O)C(C)(C)F)c1nc(-c2ccc(-c3ccc(-c4c[nH]c([C@@H](NC(=O)C(C)(C)F)C(C)C)n4)c(F)c3)cc2)c[nH]1 [Compound N-90]	>100 fold
CC(C)[C@H](NC(=O)C(C)(C)OCC(F)F)c1nc(-c2ccc(-c3ccc(-c4c[nH]c([C@@H](NC(=O)C(C)(C)OCC(F)F)C(C)C)n4)c(F)c3)cc2)c[nH]1 [Compound N-91]	>100 fold
CC(C)[C@H](NC(=O)c1ccccc1F)c1nc(-c2ccc(-c3ccc(-c4c[nH]c([C@@H](NC(=O)c5ccccc5F)C(C)C)n4)c(F)c3)cc2)c[nH]1 [Compound N-92]	>100 fold
CC(C)(C)C(=O)N[C@H](c1nc(-c2ccc(-c3ccc(-c4c[nH]c([C@@H](NC(=O)C(C)(C)C)C(C)(C)C)n4)c(F)c3)cc2)c[nH]1)C(C)(C)C [Compound N-93]	>100 fold
COC(C)(C)C(=O)N[C@H](c1nc(-c2ccc(-c3ccc(-c4c[nH]c([C@@H](NC(=O)C(C)(C)OC)C(C)(C)C)n4)c(F)c3)cc2)c[nH]1)C(C)(C)C [Compound N-94]	>100 fold

SMILES	Fold-Synergistic 1a (Q30E)
CC(C)(C)[C@H](NC(=O)c1ccccc1F)c1nc(-c2ccc(-c3ccc(-c4c[nH]c([C@@H](NC(=O)c5ccccc5F)C(C)(C)C)n4)c(F)c3)cc2)c[nH]1 [Compound N-95]	>100 fold
COC(C)(C)C(=O)N[C@H](c1nc(-c2ccc(-c3ccc(-c4c[nH]c([C@@H](NC(=O)C(C)(C)OC)C(C)C)n4)cc3F)cc2)c[nH]1)C(C)C [Compound N-96]	>100 fold
CC(C)[C@H](NC(=O)C(C)(C)F)c1nc(-c2ccc(-c3ccc(-c4c[nH]c([C@@H](NC(=O)C(C)(C)F)C(C)C)n4)cc3F)cc2)c[nH]1 [Compound N-97]	>100 fold
CC(C)[C@H](NC(=O)C(C)(C)OCC(F)F)c1nc(-c2ccc(-c3ccc(-c4c[nH]c([C@@H](NC(=O)C(C)(C)OCC(F)F)C(C)C)n4)cc3F)cc2)c[nH]1 [Compound N-98]	>100 fold
CC(C)[C@H](NC(=O)c1cc(Cl)ccc1F)c1nc(-c2ccc(-c3ccc(-c4c[nH]c([C@@H](NC(=O)c5cc(Cl)ccc5F)C(C)C)n4)cc3F)cc2)c[nH]1 [Compound N-99]	>100 fold
CC(C)[C@H](NC(=O)C(C)(C)C)c1nc(-c2ccc(-c3ccc(-c4c[nH]c([C@@H](NC(=O)C(C)(C)C)C(C)C)n4)cc3F)cc2)c[nH]1 [Compound N-100]	>100 fold
COC(C)(C)C(=O)N[C@H](c1nc(-c2ccc(-c3ccc(-c4c[nH]c([C@@H](NC(=O)C(C)(C)OC)C(C)C)n4)cn3)cc2)c[nH]1)C(C)C [Compound N-102]	>100 fold
CC(C)[C@H](NC(=O)C(C)(C)C)c1nc(-c2ccc(-c3ccc(-c4c[nH]c([C@@H](NC(=O)C(C)(C)C)C(C)C)n4)cn3)cc2)c[nH]1 [Compound N-103]	>100 fold
CC(C)(C)[C@H](NC(=O)C1CCC(F)(F)CC1)c1nc(-c2ccc(-c3cnc(-c4c[nH]c([C@@H](NC(=O)C5CCC(F)(F)CC5)C(C)(C)C)n4)cn3)cc2)c[nH]1 [Compound N-104]	>100 fold
CC(C)(C)C(=O)N[C@H](c1nc(-c2ccc(-c3cnc(-c4c[nH]c([C@@H](NC(=O)C(C)(C)C)C(C)(C)C)n4)cn3)cc2)c[nH]1)C(C)(C)C [Compound N-105]	>100 fold
O=C(NC(c1nc(-c2ccc(-c3ccc(-c4c[nH]c(C(NC(=O)C5CCC(F)(F)CC5)C5(C(F)(F)F)CC5)n4)cc3)cc2)c[nH]1)C1(C(F)(F)F)CC1)C1CCC(F)(F)CC1 (stereo not shown) [Compound N-109B]	>100 fold
CC(C)(C)[C@H](NC(=O)C1CCC(F)(F)C1)c1nc(-c2ccc(-c3ccc(-c4c[nH]c([C@@H](NC(=O)C5CCC(F)(F)C5)C(C)(C)C)n4)cc3)cc2)c[nH]1 (stereo partly shown) [Compound N-111A]	>100 fold
C=C1CCC(C(=O)N[C@H](c2nc(-c3ccc(-c4ccc(-c5c[nH]c([C@@H](NC(=O)C6CCC(=C)CC6)C(C)(C)C)n5)cc4)cc3)c[nH]2)C(C)(C)C)CC1 [Compound N-118]	>100 fold
CC(C)(C)[C@H](NC(=O)CC1CC(F)(F)C1)c1nc(-c2ccc(-c3ccc(-c4c[nH]c([C@@H](NC(=O)CC5CC(F)(F)C5)C(C)(C)C)n4)cc3)cc2)c[nH]1 [Compound N-120]	>100 fold
CC(C)(C)[C@H](NC(=O)C1CCC(=C(F)F)CC1)c1nc(-c2ccc(-c3ccc(-c4c[nH]c([C@@H](NC(=O)C5CCC(=C(F)F)CC5)C(C)(C)C)n4)cc3)cc2)c[nH]1 (stereo partly shown) [Compound N-121]	>100 fold
CC(C)(C)[C@H](NC(=O)C1CCC2(CC1)CC2)c1nc(-c2ccc(-c3ccc(-c4c[nH]c([C@@H](NC(=O)C5CCC6(CC5)CC6)C(C)(C)C)n4)cc3)cc2)c[nH]1 (stereo partly shown) [Compound N-123]	>100 fold
COC(=O)N[C@H](C(=O)N[C@H](c1nc(-c2ccc3cc(-c4ccc(-c5cnc([C@@H](NC(=O)[C@@H](NC(=O)OC)C(C)C)C(C)C)[nH]5)cc4)ccc3c2)c[nH]1)C(C)C)C(C)C [Compound P-1]	<10 fold
CC(C)CC(=O)N[C@H](c1nc(-c2ccc3cc(-c4ccc(-c5cnc([C@@H](NC(=O)CC(C)C)C(C)C)[nH]5)cc4)ccc3c2)c[nH]1)C(C)C [Compound P-2]	>10 fold
COC(=O)N[C@H](C(=O)N[C@H](c1nc(-c2ccc(-c3ccc(-c4c[nH]c([C@@H](NC(=O)[C@@H](NC(=O)OC)C(C)C)C5CC5)n4)cc3)cc2)c[nH]1)C1CC1)C(C)C [Compound P-3]	>10 fold
CC(C)CC(=O)N[C@@H](CC(C)(C)C)c1nc(-c2ccc(-c3ccc(-c4c[nH]c([C@H](CC(C)(C)C)NC(=O)CC(C)C)n4)cc3)cc2)c[nH]1 [Compound P-4]	>10 fold
CC(C)CC(=O)N[C@@H](c1ccccc1)c1nc(-c2ccc(-c3ccc(-c4c[nH]c([C@@H](NC(=O)CC(C)C)c5ccccc5)n4)cc3)cc2)c[nH]1 [Compound P-5]	>100 fold
